Test results from patent US20240315991A1, “USES OF HNF4 ALPHA AGONISTS” (Sanford Burnham Prebys Medical Discovery Institute, priority 2023, published 2024).
“Also recorded” adds a separate entry of the source.

Assays:
[1] = tested on: C57BL/6 mice fed high fat diet (HFD); assay: HFD induced weight gain and hepatic steatosis, NCT in HFD chow for 10 weeks; type: in vivo
Procedure: (§1) NCT oral administration. Four-week-old male C57BL/6J (JAX cat #000664) mice were purchased from Jackson laboratory and were maintained in a 12 h light/dark cycle throughout the experiment. Prior to the experiments, mice were acclimated for 2 weeks. Six-week-old mice with similar body weights were randomized to a normal diet (NC), a high fat diet (HFD) (Research Diets, cat #D12492 60 kcal % fat) or HFD containing 4000 ppm NCT (HFD+NCT) (Research Diets, 60 kcal % fat+4000 ppm NCT), which was calculated to provide approximately 400 mg/kg/d NCT. HFD chow containing NCT was made with gray dye to distinguish it from regular HFD chow that had green dye. Mice for each treatment group were placed in separate cages. Equal amounts of fresh chow were provided every week to all mice. Body weight gain and food intake were measured every week for 10 weeks. After 10 weeks of chow treatment, mice were sacrificed for analysis. All animal experiments were approved by the Institutional Animal Care and Use Committee (IACUC) of the Sanford Burnham Prebys Medical Discovery Institute in accordance with national regulations. Sample size was chosen based on the prior study of NCT delivered by IP injection.
Sample collection. Mouse samples were collected as described previously. Briefly, on the final day of treatment mice received dextrose (3 g/kg of body weight) by IP injection to stimulate insulin secretion, which inhibits FFA release from adipocytes, leaving liver-derived FFA as the major source of circulating FFA. One hour later, blood samples were collected via retro-orbital bleeding and mice were euthanized using pentobarbital. Mice were dissected aseptically and liver, epididymal fat, and body weights were measured and pictures taken. Dissected liver samples were washed immediately in sterile cold PBS and cut into small pieces. Half of the liver samples were snap frozen using liquid nitrogen and stored at −80° C. for RNA, protein isolation, and liver lysate preparations. The other half were fixed in 4% of cold paraformaldehyde (PFA, Santa Cruz Biotechnology, USA) and processed for histomorphometry and immunofluorescence.
Oil Red O staining (in vivo) and analysis. Oil red O staining was performed as described previously. Slides containing frozen liver tissue sections from mice were air dried for 10-20 min followed by rehydration in distilled water. Sections were immersed in absolute propylene glycol (Cat #151957, MP Biomedicals, LLC, USA) for 2 min followed by 0.5% in Oil red O solution (Cat #K043, Poly Scientific R&D, USA) for 2 h. Slides were then differentiated in 85% propylene glycol solution, washed with dH2O for 2 h, and mounted using glycerin jelly mounting medium. All slides were scanned at a magnification of ×20 using the Aperio Scanscope FL system (Aperio Technologies Inc., Vista, CA, USA). The liver area stained with oil red O was measured using image J software as described, with some modifications as follow, Oil red O-stained liver images were opened in Image J software. Using the Analyze>Set Scale command, the scale bar of the images was set to 200 μm. RGB images were then converted into grayscale images using the Image>Type>RGB Stack command and were split into red, blue and green channels. Using the Image>Adjust>Threshold command, the threshold was manually set to highlight the Oil red O-stained lipid droplets in the green channel. The same threshold was used for all the images in all treatment groups and the % oil red O-stained area was obtained using the Analyze->Measure tool command. Fold change was calculated by normalizing the values to images from mice fed normal chow.
Triglyceride analysis. The TG level in mouse liver, serum, and stool was measured according to manufacturer's instructions using the Triglyceride calorimetric Assay Kit (Cat #10010303, Cayman Chemicals, USA). Liver and stool TG was normalized with liver and stool weight, respectively. Fold change was calculated by normalizing to values from mice fed NC. […]

PPARγ mRNA = assay: RT-PCR of mouse liver, PPARγ; type: in vivo; settings: HFD+NCT vs HFD, to the level of mice on normal chow, FIG. 3N
Procedure: as §1, with “All animal experiments were approved by the Institutional Animal Care and Use Committee (IACUC) of the Sanford Burnham Prebys Medical Discovery Institute in accordance with national regulations. Sample size was chosen based on the prior study of NCT delivered by IP injection.” left out
(§2) RT-PCR. […] Quantitative real time PCR (RT-PCR) analysis was performed using SYBR® Select Master Mix (Applied Biosystems) and an ABI 7900HT thermal cycler (Applied Biosystems, Thermo Fisher Scientific). Ct values were normalized to 18s rRNA and are expressed as fold change over samples from mice fed NC or cultured human hepatocytes without NCT.

TNFα mRNA = assay: RT-PCR of mouse liver, TNFα; type: in vivo; settings: HFD+NCT vs HFD, FIG. 5B
Procedure: as §1, with “All animal experiments were approved by the Institutional Animal Care and Use Committee (IACUC) of the Sanford Burnham Prebys Medical Discovery Institute in accordance with national regulations. Sample size was chosen based on the prior study of NCT delivered by IP injection.” left out
as §2

PPARGC1A mRNA = assay: RT-PCR of primary human hepatocytes, PPARGC1A; type: cell-based; settings: HEP-fat media, NCT 5, 15, and 40 μM, FIG. 4F
Procedure: (§3) Primary human hepatocytes. Experiments with primary human hepatocytes were performed by CN-Bio (Cambridge, UK). Briefly, primary human hepatocytes (PHHs), human Kupffer cells (HKs) and human stellate cells (HSCs) were seeded onto CN-Bio's PhysioMimix LC12 MPS culture plates at 6×10^5 cells for PHHs and 6×10^4 cells for HKs and HSCs in 1.6 ml of CN-Bio's HEP-lean media with 5% FCS. Throughout the experiment the cells were maintained at a flow rate of 1 μl/s. After 24 hours (Day 1) of seeding, the media was changed to HEP-lean media and the cells were incubated until day 4 to allow the cells to form microtissues. At day 4 post seeding, media was changed to HEP-fat media and treated with DMSO or NCT (5, 15, and 40 μM). Media was replaced on days 6 and 8. Cells were harvested on day 10 for RNA extraction and culture media was collected for ELISA analysis.
as §2

cytochrome C mRNA = assay: RT-PCR of primary human hepatocytes, cytochrome C; type: cell-based; settings: 0 μM vs. each concentration of NCT, FIG. 3I
Procedure: as §3, §2

[2] = tested on: mice maintained on a 60% fat calorie diet; settings: intraperitoneal injection for 2 weeks; cited from earlier work
[3] = HFD containing 4000 ppm NCT, end of the experiment at 10 weeks

With O=C(/C=C/c1ccc(O)c(O)c1)NCCc1ccc(O)cc1 [NCT, N-trans caffeoyltyramine] the “body weight compared with mice fed HFD alone” value ([1]; C57BL/6 mice, HFD containing 4000 ppm NCT, 10 weeks) was “substantially less; also recorded: weighed less”, the “week at which lower body weight than HFD alone became evident” value ([1]; HFD containing 4000 ppm NCT) was 5 week and the “body weight less than mice fed HFD” value [1, 3] was ~10 g. The “difference in body weight vs mice fed HFD” value [1, 3] was 35-40%, the “Oil Red O staining of liver” value ([1]; HFD+NCT vs HFD, 10 weeks) was “decreased” and the liver redness ([1]; HFD+NCT vs HFD, 10 weeks) was “increase; also recorded: redder”. For the same compound, the liver size ([1]; HFD+NCT vs HFD, 10 weeks) was “reductions”, the liver weight ([1]; HFD+NCT vs HFD, 10 weeks) was “lower” and the obesity ([1]; HFD+NCT vs HFD, 10 weeks) was “markedly less obese”. For the same compound, the subcutaneous fat ([1]; HFD+NCT vs HFD, 10 weeks) was “substantially less”, the visceral adiposity ([1]; HFD+NCT vs HFD, 10 weeks) was “reductions” and the “hepatic TG level” value ([1]; HFD+NCT vs HFD, 10 weeks, normalized to liver weight) was “decreased”. The “epididymal fat pad weight” value ([1]; HFD+NCT vs HFD, end of study, normalized with total body weight) was “no change”, the “toxicity from NCT consumption” value ([1]; mice fed HFD containing NCT) was “no evidence of any toxicity” and the mitochondrial mass ([1]; mice fed HFD containing NCT vs HFD alone) was “increased”. The “PPARγ expression in liver” value (PPARγ mRNA) was “reduce”, the “TNFα level in livers of mice on HFD” value (TNFα mRNA) was “decreased” and the “TNFα level in livers of mice on HFD” value (TNFα mRNA; listed as Compound A) was “decrease”. For the same compound, the “PPARGC1A(PGC1a) mRNA in primary human hepatocytes” value (PPARGC1A mRNA) was “increase”, the “cytochrome C mRNA levels in primary human hepatocytes” value (cytochrome C mRNA) was “non-significant” and the body weight loss [2] was “no body weight loss”. For the same compound, the “fat stored in liver” value [2] was “reduce”.
